Laboratory results as given in patent US8415469B2, “Compounds and methods for kinase modulation, and indications therefor” (Plexxikon Inc., priority 2005, dated 2013).

Assays:
Format in all cases: biochemical
Kdr = molecular target: T1, Kdr (Homo sapiens, UniProt P35968); assay: Z'-Lyte FRET kinase assay (Invitrogen), Kdr; conditions: read-out: IC50, activity toward kinase Kdr
T1 construct: purchased Invitrogen (assay run by Invitrogen)
Excerpt: For example, direct radiometric, indirect FRET or AlphaScreen assays may be used to assess the level of phosphorylation of a substrate in the presence of test compounds in order to determine the inhibitory affect of the compound on the kinase. […] For these assays, compounds of the invention were screened by Invitrogen using Z′-Lyte™ kinase assay.
Briefly, the Invitrogen kinase assay involves use of a specific peptide substrate optimized for each kinase, containing a fluorophore at each end that make up the FRET pair. The peptide sensitivity to proteolytic cleavage depends on phosphorylation of the peptide. Non-phosphorylated peptide is cleaved by a protease while peptide phosphorylated by the kinase is not cleaved. Cleavage of the peptide disrupts the FRET between the donor (coumarin) and acceptor (fluorescein) fluorophores, resulting in an increase in the ratio of donor emission to acceptor emission. The emission ratio of coumarin to fluorescein is used to assess the reaction progress. […] Thus, the assay involves a kinase reaction in the presence of varying concentrations of a given compound, a development reaction with site specific protease, and detection of the fluorescent emission ratio of coumarin and fluorscein. […] Reaction conditions for each kinase are determined to provide optimal reaction times, incubation temperature, kinase and ATP concentrations. Test samples are made up in 1× kinase buffer (50 mM HEPES pH 7.5, 50 mM MgCl2, 5 mM EGTA, 0.05% BRIJ-35) and compound at desired concentration prepared in DMSO such that the final DMSO is 1%. […] All kinase except for MAP2K1 were at 10 μM ATP in the kinase reaction, while MAP2K1 was at 100 μM. Samples are mixed and the kinase reaction is incubated 1 hour at room temperature, after which 5 μl of development solution is added and mixed. After incubation for another 1 hour at room temperature, 5 μl of stop reagent is added to each sample and mixed. The fluorescence signals are measured to determine the emission ratio.

Stk6 = molecular target: T2, Stk6 (Homo sapiens, UniProt O14965); assay: Z'-Lyte FRET kinase assay (Invitrogen), Stk6; conditions: read-out: IC50, activity toward kinase Stk6
T2 construct: purchased Invitrogen (Carlsbad, Calif.), screening service
T2 sequence (O14965 1-403): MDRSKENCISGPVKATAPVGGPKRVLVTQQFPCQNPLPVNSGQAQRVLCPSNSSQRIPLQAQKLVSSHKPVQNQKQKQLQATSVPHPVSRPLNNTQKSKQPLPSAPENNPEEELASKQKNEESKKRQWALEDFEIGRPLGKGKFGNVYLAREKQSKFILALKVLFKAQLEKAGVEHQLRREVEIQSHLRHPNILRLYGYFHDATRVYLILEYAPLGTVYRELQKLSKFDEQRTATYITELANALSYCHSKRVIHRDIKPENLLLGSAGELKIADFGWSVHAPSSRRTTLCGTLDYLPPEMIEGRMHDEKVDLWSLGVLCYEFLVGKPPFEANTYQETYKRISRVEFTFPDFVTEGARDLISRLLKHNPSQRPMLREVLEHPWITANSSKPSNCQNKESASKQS

Fms = molecular target: T3, Fms (Homo sapiens, UniProt P07333); assay: AlphaScreen kinase assay, Fms; conditions: read-out: IC50, activity toward kinase Fms
T3 construct: purchased Upstate Biotechnology

FGFR1 = molecular target: T4, FGFR1 (Homo sapiens, UniProt P11362, C488A/C584S); assay: AlphaScreen kinase assay, FGFR1; conditions: read-out: IC50, activity toward kinase FGFR
T4 construct: P1351.pET N6 BI-PTP FGFR A458-E765-X C488A, C584S; made in house; host or cells: E. coli (PTP1B co-expressed)

Jnk3 = molecular target: T5, Jnk3 (Homo sapiens, UniProt P53779); assay: AlphaScreen kinase assay, Jnk3; conditions: read-out: IC50, activity toward kinase Jnk3
T5 construct: purchased Upstate Biotechnology
Excerpt: AlphaScreen assay was used to screen additional kinases. The assay is similarly dependent on the phosphorylation of a peptide substrate. In this assay, an antibody that recognizes phosphorylated substrate is bound to an acceptor bead. The peptide substrate is attached to biotin, which binds to a donor head that contains streptavidin. Thus phosphorylated substrate is bound by antibody and streptavidin, bringing the donor and acceptor heads into close proximity when kinase is not inhibited. The donor produces singlet oxygen which results in emission from the acceptor when they are in close proximity. Conversely, when kinase is inhibited, the donor and acceptor beads are not associated and the emission from the acceptor is reduced.
AlphaScreen assays were done using compounds dissolved in DMSO to a concentration of 20 mM. The compounds were diluted accordingly to the desired final concentrations in each sample well, using 1:3 serial dilution for a total of 8 concentration points. Plates were prepared such that each kinase reaction is 20 μl in 1× kinase buffer, 5% DMSO and 10 μM ATP. After incubation of the kinase reaction for 1 hour at room temperature, 5 μl of donor beads in stop buffer (50 mM EDTA in 1× kinase buffer) was added, the sample was mixed and incubated for 20 minutes at room temperature before adding 5 μl of acceptor beads in stop buffer. The samples were incubated for 60 minutes at room temperature and the signal per well was read on AlphaQuest reader.

Ret = molecular target: T6, Ret (Homo sapiens, UniProt P07949); assay: AlphaScreen kinase assay, Ret; conditions: read-out: IC50, activity toward kinase Ret
T6 construct: P1378.pET-SF BI-PTP RET H661-R1012 HIS; made in house
T6 sequence (P07949 with tags, fused parts or gaps): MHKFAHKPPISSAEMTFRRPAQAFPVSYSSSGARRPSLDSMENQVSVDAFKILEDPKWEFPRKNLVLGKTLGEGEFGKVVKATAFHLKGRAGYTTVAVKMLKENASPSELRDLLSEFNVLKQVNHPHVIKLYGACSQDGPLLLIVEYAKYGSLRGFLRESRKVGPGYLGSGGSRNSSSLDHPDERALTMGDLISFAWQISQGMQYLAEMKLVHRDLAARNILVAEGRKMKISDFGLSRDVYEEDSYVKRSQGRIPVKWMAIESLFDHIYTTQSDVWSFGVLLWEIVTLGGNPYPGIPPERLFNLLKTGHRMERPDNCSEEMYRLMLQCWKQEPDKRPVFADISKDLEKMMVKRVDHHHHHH

Fak = molecular target: T7, Fak (Homo sapiens, UniProt Q05397); assay: AlphaScreen kinase assay, Fak; conditions: read-out: IC50, activity toward kinase Fak
T7 construct: P1358.pFastBacHtb FAK S411-Q686-X; His6 with pFastBacHTb leader (TEV site) (N); made in house; host or cells: Sf9 (baculovirus)

Kit = molecular target: T8, Kit (Homo sapiens, UniProt P10721); assay: AlphaScreen kinase assay, Kit; conditions: read-out: IC50, activity toward kinase Kit
T8 construct: P1332.N6 BI PTP KIT M552-K948-X COD; His6 (N); made in house; host or cells: E. coli (PTP1B co-expressed)

B-Raf V600E = molecular target: T9, B-Raf V600E (Homo sapiens, UniProt P15056, V600E); assay: AlphaScreen kinase assay, B-Raf V600E; conditions: read-out: IC50, activity toward kinase B-Raf V600E
T9 construct: P4254. pFastBacBD-CDC37 BRAF D437-K722-X, V600E; His6 with pFastBac HT leader (TEV site) (N); made in house; host or cells: Sf9 (baculovirus; chaperone CDC37 co-expressed)

B-Raf = molecular target: T10, B-Raf (Homo sapiens, UniProt P15056); assay: AlphaScreen kinase assay, B-Raf; conditions: read-out: IC50, activity toward kinase B-Raf
T10 construct: purchased Upstate Biotechnology
T10 sequence (P15056 whole entry): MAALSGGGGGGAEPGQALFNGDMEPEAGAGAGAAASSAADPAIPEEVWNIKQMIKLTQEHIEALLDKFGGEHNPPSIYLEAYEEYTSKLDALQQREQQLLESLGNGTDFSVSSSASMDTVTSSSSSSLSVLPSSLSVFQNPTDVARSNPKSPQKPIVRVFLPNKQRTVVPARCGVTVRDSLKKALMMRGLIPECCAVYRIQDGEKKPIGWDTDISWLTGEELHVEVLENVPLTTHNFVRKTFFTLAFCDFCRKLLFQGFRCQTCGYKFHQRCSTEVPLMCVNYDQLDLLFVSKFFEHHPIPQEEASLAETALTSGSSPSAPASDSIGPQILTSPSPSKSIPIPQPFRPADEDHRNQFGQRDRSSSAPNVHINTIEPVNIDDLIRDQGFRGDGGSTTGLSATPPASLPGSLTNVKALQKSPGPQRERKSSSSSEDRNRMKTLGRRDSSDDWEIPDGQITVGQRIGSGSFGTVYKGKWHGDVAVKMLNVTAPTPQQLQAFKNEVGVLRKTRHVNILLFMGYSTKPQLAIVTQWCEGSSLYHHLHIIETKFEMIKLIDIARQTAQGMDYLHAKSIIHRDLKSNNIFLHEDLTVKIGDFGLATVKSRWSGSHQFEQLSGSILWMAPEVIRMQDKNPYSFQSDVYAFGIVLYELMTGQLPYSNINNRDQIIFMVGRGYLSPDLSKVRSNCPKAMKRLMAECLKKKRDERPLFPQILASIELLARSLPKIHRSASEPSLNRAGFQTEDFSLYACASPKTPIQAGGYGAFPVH

T4 sequence (P11362 458-765 C488A/C584S): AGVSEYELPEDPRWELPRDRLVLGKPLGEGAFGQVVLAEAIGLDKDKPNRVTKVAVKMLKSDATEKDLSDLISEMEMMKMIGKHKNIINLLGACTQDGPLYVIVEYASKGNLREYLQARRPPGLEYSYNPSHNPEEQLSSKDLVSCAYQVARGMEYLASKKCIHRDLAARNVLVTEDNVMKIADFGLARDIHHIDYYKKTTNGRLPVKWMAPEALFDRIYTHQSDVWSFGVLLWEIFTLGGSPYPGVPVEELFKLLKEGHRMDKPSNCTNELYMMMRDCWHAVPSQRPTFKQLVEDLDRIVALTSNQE
T9 sequence (P15056 with tags, fused parts or gaps V600E): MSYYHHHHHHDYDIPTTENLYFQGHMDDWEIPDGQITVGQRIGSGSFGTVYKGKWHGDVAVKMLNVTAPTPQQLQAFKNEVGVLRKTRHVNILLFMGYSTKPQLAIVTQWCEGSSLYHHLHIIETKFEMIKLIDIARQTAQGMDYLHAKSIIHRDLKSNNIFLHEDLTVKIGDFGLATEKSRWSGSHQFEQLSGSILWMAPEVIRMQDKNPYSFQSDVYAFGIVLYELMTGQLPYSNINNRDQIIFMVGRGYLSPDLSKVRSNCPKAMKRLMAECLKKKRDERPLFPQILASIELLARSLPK
T8 sequence (P10721 with tags, fused parts or gaps): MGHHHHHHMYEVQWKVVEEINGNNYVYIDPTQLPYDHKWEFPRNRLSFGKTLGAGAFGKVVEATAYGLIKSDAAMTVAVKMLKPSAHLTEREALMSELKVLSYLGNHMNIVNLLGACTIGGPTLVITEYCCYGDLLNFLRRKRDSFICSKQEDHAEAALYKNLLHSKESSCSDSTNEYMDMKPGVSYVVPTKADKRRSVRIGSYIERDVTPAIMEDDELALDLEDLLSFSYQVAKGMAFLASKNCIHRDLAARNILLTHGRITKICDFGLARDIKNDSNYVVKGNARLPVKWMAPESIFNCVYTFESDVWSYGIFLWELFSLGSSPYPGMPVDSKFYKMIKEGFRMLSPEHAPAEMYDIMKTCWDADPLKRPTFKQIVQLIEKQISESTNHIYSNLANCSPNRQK
T7 sequence (Q05397 411-686): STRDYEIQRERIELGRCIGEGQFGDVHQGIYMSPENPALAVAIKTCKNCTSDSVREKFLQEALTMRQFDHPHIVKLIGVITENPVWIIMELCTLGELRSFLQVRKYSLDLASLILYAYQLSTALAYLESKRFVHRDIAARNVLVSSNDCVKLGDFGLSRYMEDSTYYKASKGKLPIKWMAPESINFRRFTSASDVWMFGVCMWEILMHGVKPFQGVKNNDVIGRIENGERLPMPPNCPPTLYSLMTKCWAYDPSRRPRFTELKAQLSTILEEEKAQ
T3 sequence (P07333 20-972): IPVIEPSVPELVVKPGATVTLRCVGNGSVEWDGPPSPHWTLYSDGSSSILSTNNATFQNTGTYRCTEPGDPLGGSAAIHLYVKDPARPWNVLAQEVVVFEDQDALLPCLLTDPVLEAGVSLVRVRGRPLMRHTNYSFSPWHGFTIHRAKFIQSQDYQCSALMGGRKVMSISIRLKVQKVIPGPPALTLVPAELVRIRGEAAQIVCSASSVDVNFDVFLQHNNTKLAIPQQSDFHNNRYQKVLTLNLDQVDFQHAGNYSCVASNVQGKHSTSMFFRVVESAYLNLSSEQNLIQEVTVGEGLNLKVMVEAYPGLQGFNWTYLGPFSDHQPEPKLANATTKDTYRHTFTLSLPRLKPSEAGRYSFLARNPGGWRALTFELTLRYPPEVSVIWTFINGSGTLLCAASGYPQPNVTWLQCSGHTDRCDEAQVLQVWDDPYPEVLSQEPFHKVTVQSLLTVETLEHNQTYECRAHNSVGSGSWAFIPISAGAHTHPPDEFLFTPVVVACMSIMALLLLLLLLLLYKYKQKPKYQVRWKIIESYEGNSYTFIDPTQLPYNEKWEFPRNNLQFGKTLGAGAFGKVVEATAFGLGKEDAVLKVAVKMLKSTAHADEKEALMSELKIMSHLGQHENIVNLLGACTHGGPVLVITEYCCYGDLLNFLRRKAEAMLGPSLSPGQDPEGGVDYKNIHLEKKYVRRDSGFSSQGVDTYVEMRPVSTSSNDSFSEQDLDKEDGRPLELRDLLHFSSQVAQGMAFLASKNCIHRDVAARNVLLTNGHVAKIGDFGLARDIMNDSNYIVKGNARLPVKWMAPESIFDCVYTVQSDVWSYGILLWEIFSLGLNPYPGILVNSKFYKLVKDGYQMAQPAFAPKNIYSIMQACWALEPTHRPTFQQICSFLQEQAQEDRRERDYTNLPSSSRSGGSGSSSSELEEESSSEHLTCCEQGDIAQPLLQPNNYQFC
T1 sequence (P35968 20-1356): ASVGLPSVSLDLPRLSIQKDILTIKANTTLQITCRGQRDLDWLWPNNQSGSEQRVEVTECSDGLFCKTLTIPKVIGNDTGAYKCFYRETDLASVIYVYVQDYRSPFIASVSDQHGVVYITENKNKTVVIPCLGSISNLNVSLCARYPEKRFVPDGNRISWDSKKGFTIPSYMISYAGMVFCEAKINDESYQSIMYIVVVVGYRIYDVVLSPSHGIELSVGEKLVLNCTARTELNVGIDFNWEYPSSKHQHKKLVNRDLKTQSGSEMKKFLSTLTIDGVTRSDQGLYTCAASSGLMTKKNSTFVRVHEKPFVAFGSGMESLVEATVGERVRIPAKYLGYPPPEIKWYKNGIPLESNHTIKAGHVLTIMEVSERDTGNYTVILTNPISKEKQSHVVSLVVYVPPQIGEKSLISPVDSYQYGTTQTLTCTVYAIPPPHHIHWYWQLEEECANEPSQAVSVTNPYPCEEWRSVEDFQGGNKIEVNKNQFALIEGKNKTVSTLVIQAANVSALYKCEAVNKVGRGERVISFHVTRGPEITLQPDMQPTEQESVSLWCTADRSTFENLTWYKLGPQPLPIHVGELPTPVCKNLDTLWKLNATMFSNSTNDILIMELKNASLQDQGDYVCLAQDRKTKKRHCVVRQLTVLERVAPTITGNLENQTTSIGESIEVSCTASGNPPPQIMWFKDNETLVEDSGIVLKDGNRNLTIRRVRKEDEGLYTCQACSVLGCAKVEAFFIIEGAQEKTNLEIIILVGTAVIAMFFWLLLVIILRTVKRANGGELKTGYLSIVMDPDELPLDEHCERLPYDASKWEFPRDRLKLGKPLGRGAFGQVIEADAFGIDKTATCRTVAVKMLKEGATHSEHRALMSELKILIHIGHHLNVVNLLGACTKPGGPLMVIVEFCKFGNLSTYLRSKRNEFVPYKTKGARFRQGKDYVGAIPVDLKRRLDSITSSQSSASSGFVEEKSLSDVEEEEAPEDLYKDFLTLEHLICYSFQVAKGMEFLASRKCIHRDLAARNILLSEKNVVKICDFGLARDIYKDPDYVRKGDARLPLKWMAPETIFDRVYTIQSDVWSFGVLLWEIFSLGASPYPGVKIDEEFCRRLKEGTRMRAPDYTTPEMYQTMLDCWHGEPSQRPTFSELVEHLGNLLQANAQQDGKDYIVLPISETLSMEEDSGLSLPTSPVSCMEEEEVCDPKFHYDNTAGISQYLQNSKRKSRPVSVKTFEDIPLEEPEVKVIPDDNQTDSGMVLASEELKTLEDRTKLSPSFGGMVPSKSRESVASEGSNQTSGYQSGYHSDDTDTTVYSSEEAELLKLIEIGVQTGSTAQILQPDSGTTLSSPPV
T5 sequence (P53779 whole entry): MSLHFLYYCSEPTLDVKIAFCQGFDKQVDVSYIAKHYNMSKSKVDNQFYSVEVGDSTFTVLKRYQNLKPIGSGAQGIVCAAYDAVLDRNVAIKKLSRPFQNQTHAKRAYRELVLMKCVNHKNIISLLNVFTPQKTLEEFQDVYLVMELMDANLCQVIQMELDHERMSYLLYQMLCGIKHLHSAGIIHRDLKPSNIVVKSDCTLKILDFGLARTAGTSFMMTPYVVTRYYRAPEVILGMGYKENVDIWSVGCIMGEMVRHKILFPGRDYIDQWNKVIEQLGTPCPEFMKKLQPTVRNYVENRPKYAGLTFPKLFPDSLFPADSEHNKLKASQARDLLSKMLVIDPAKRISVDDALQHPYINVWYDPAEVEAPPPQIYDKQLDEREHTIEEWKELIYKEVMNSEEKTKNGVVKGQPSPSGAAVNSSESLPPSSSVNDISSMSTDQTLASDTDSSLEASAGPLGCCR

Row | Compound | IC50 (Kdr) | IC50 (Stk6) | IC50 (Fak) | IC50 (Kit) | IC50 (B-Raf V600E) | further results
1 | c1cnc2[nH]cc(-c3ccoc3)c2c1 [Compound P-0260] | ≤ 10 µM | ≤ 10 µM | – | – | – | –
2 | O=C(c1ccc(Nc2cccc(O)c2)nc1)c1c[nH]c2ncccc12 [Compound P-0189] | ≤ 10 µM | ≤ 10 µM | – | – | – | IC50 (Fms): ≤ 10 µM; IC50 (FGFR1): ≤ 10 µM; IC50 (Jnk3): ≤ 10 µM
3 | Cc1cc(C(=O)c2c[nH]c3nccc(-c4cccc(/C=C/C(=O)O)c4)c23)n(C)n1 [Compound P-0469] | – | ≤ 10 µM | – | – | – | IC50 (Ret): ≤ 10 µM
4 | COc1cccc(C(=O)c2ccc(-c3cnc4[nH]ccc4c3)s2)c1 [Compound P-0494] | – | – | ≤ 10 µM | – | – | –
5 | COc1cccc(Cc2c[nH]c3ncc(-c4cccc(NS(C)(=O)=O)c4)cc23)c1F [Compound P-1329, N-{3-[3-(2-Fluoro-3-methoxy-benzyl)-1H-pyrrolo[2,3-b]pyridin-5-yl]-phenyl}-methanesulfonamide] | – | – | ≤ 10 µM | ≤ 10 µM | ≤ 10 µM | IC50 (Fms): ≤ 10 µM; IC50 (FGFR1): ≤ 10 µM
6 | OC(c1ccccc1F)c1c[nH]c2ncc(Br)cc12 (stereo not drawn) [Compound P-1321] | – | – | ≤ 10 µM | ≤ 10 µM | – | IC50 (Fms): ≤ 10 µM; IC50 (FGFR1): ≤ 10 µM
7 | COc1ccc(-c2c(CSCC(C)C)[nH]c3ncccc23)cc1 [Compound P-0313] | – | ≤ 10 µM | – | – | – | IC50 (Jnk3): ≤ 10 µM
8 | Cn1cccc1C(=O)c1c[nH]c2ncccc12 [Compound P-0147] | ≤ 10 µM | ≤ 10 µM | – | – | ≤ 10 µM | –
9 | O=C(O)/C=C/c1cccc(-c2ccnc3[nH]cc(C(=O)c4cccc(Cl)c4Cl)c23)c1 [Compound P-0110] | ≤ 10 µM | ≤ 10 µM | – | – | ≤ 10 µM | IC50 (Ret): ≤ 10 µM
10 | c1coc(-c2nc(-c3ccnc4[nH]ccc34)no2)c1 [Compound P-0319] | ≤ 10 µM | ≤ 10 µM | – | – | – | –
11 | Cc1cccc(C)c1Cc1c[nH]c2ncccc12 [Compound P-0333, 3-(2,6-Dimethyl-benzyl)-1H-pyrrolo[2,3-b]pyridine] | – | – | ≤ 10 µM | ≤ 10 µM | ≤ 10 µM | IC50 (Fms): ≤ 10 µM
12 | CC(=O)c1cccc(-c2ccnc3[nH]cc(Sc4cccs4)c23)c1 [Compound P-0092] | ≤ 10 µM | ≤ 10 µM | – | – | ≤ 10 µM | –
13 | Cc1ccc(-c2ccnc3[nH]cc(Sc4cccs4)c23)cc1[N+](=O)[O-] [Compound P-0199] | ≤ 10 µM | ≤ 10 µM | – | – | ≤ 10 µM | –
14 | Fc1cccc(-c2ccnc3[nH]cc(Sc4cccs4)c23)c1 [Compound P-0181] | – | ≤ 10 µM | – | – | ≤ 10 µM | IC50 (Ret): ≤ 10 µM
15 | CC(C)CCc1c[nH]c2ncccc12 [Compound P-0797] | – | – | ≤ 10 µM | – | – | –
16 | c1coc(CNCc2c[nH]c3ncccc23)c1 [Compound P-0322] | ≤ 10 µM | ≤ 10 µM | – | – | – | –
17 | O=C(O)/C=C/c1cccc(-c2ccnc3[nH]cc(C(=O)c4ccc(Cl)cc4)c23)c1 [Compound P-0100] | ≤ 10 µM | ≤ 10 µM | – | – | ≤ 10 µM | IC50 (Ret): ≤ 10 µM
18 | Brc1cnc2[nH]cc(Cc3ccc4c(c3)OCCO4)c2c1 [Compound P-1474, 5-Bromo-3-(2,3-dihydro-benzo[1,4]dioxin-6-ylmethyl)-1H-pyrrolo[2,3-b]pyridine] | – | – | ≤ 10 µM | ≤ 10 µM | ≤ 10 µM | IC50 (Fms): ≤ 10 µM; IC50 (FGFR1): ≤ 10 µM
19 | Fc1ccc(-c2c(CSCc3ccco3)[nH]c3ncccc23)cc1 [Compound P-0064] | ≤ 10 µM | ≤ 10 µM | – | ≤ 10 µM | – | IC50 (Ret): ≤ 10 µM
20 | CC(=O)c1cccc(-c2cnc3[nH]ccc3c2)c1 [Compound P-0080] | – | ≤ 10 µM | – | – | – | IC50 (Jnk3): ≤ 10 µM

Row | Compound | IC50 (Kdr) | IC50 (Stk6) | IC50 (Fak) | IC50 (Kit) | IC50 (B-Raf V600E) | further results
21 | COc1ccc(Cc2c[nH]c3ncc(-c4cccc(C(N)=O)c4)cc23)c(F)c1 [Compound P-1341] | – | – | ≤ 10 µM | ≤ 10 µM | ≤ 10 µM | IC50 (B-Raf): ≤ 10 µM; IC50 (Fms): ≤ 10 µM; IC50 (FGFR1): ≤ 10 µM
22 | O=C(O)/C=C/c1ccc(-c2ccnc3[nH]ccc23)cc1 [Compound P-0203] | ≤ 10 µM | ≤ 10 µM | – | – | – | –
23 | Cc1[nH]c2ncccc2c1-c1ccco1 [Compound P-1190] | – | – | ≤ 10 µM | – | – | –
24 | NS(=O)(=O)c1cccc(Nc2c[nH]c3ncccc23)c1 [Compound P-1500, 3-(1H-Pyrrolo[2,3-b]pyridin-3-ylamino)-benzenesulfonamide] | – | – | ≤ 10 µM | ≤ 10 µM | – | IC50 (Fms): ≤ 10 µM
25 | COC(c1c(F)ccc(N(Cc2ccccc2)Cc2ccccc2)c1F)c1c[nH]c2ncc(-c3cccnc3)cc12 (stereo not drawn) [Compound P-0143] | ≤ 10 µM | ≤ 10 µM | – | – | – | IC50 (B-Raf): ≤ 10 µM
26 | Cc1[nH]c2ncccc2c1-c1ccc(F)c(Cl)c1 [Compound P-1146] | – | – | ≤ 10 µM | – | – | –
27 | c1ccc(-c2cnc3[nH]ccc3c2)cc1 [Compound P-0279] | ≤ 10 µM | ≤ 10 µM | – | ≤ 10 µM | – | IC50 (Jnk3): ≤ 10 µM
28 | Cc1ccc(Sc2c[nH]c3nccc(-c4cccc(CO)c4)c23)cc1 [Compound P-0250] | – | ≤ 10 µM | – | – | – | IC50 (Ret): ≤ 10 µM
29 | O=C(c1ccc(Oc2cc(Cl)cc(Cl)c2)o1)c1c[nH]c2ncccc12 [Compound P-0295] | ≤ 10 µM | ≤ 10 µM | – | – | ≤ 10 µM | –
30 | Cc1[nH]c2ncccc2c1-c1ccc(C(C)C)cc1 [Compound P-1083] | – | – | ≤ 10 µM | – | – | –
31 | OCCOc1ccc(F)c(Cc2c[nH]c3ncc(Br)cc23)c1F [Compound P-1392, 2-[3-(5-Bromo-1H-pyrrolo[2,3-b]pyridin-3-ylmethyl)-2,4-difluoro-phenoxy]-ethanol] | – | – | ≤ 10 µM | ≤ 10 µM | ≤ 10 µM | IC50 (Fms): ≤ 10 µM; IC50 (FGFR1): ≤ 10 µM
32 | OC(c1ccc(NCc2ccc(Cl)cc2)nc1)c1c[nH]c2ncccc12 (stereo not drawn) [Compound P-0261] | ≤ 10 µM | ≤ 10 µM | – | – | ≤ 10 µM | –
33 | Cc1cc(C)cc(-c2c(C)[nH]c3ncccc23)c1 [Compound P-1054] | – | – | ≤ 10 µM | – | – | –
34 | Fc1cccc(-c2ccnc3[nH]ccc23)c1 [Compound P-0225] | ≤ 10 µM | ≤ 10 µM | – | – | – | –
35 | c1ccc(COc2cccc(Cc3c[nH]c4ncc(-c5ccsc5)cc34)c2)cc1 [Compound P-0132] | – | ≤ 10 µM | – | ≤ 10 µM | – | IC50 (FGFR1): ≤ 10 µM; IC50 (Jnk3): ≤ 10 µM
36 | Fc1cccc(F)c1Cc1c[nH]c2ncccc12 [Compound P-1482, 3-(2,6-Difluoro-benzyl)-1H-pyrrolo[2,3-b]pyridine] | – | – | ≤ 10 µM | ≤ 10 µM | – | IC50 (Fms): ≤ 10 µM; IC50 (FGFR1): ≤ 10 µM
37 | CCCCN(c1ccc(F)c(Cc2c[nH]c3ncc(-c4cccnc4)cc23)c1F)S(=O)(=O)c1ccc(C(F)(F)F)cc1 [Compound P-1401] | – | – | ≤ 10 µM | – | – | –
38 | COc1ccc(CCCc2c[nH]c3ncccc23)cc1 [Compound P-0437] | – | – | ≤ 10 µM | – | – | –
39 | OCc1cccc(-c2ccnc3[nH]cc(Sc4cccs4)c23)c1 [Compound P-0071] | ≤ 10 µM | ≤ 10 µM | – | – | ≤ 10 µM | IC50 (Ret): ≤ 10 µM
40 | COc1cccc(Cc2c[nH]c3ncc(-c4ccccc4)cc23)c1F [Compound P-1323, 3-(2-Fluoro-3-methoxy-benzyl)-5-phenyl-1H-pyrrolo[2,3-b]pyridine] | – | – | ≤ 10 µM | ≤ 10 µM | ≤ 10 µM | IC50 (Fms): ≤ 10 µM; IC50 (FGFR1): ≤ 10 µM
